From US20030133958A1, “External agent for the skin and whitening agent” (priority 2000, published 2003)

Assays:
[1] = tested on: B-16 melanoma cells; experiment: Test for evaluating melanogenesis-inhibitory function (cell-whitening degree) in cell culture systems using B-16 melanoma cells; assay type: cell-based; set-up: key to Whitening degree: ++: The whitening degree is higher than that observed when adding 450 μg/mL of vitamin C-magnesium phosphate.; +: The whitening degree is almost identical to that observed when adding 450 μ g/mL of vitamin C-magnesium phosphate.; ±: The whitening degree is not higher than that observed when adding 450 μg/mL of vitamin C-magnesium phosphate, but higher than that of the control.; −: The whitening degree is almost identical to that observed for the control
From the text: (§1) The B-16 melanoma cell is one having an ability of producing melanin and therefore, the cells naturally grown by cell culture blacken. If a substance capable of inhibiting melanogenesis is present in the cell growth system during the cell growth, the blackening of the cells is inhibited and they relatively whiten. Accordingly, the whitening effect of each candidate substance can be evaluated on the basis of the degree of whiteness observed when adding a test sample relative to the degree of blackness observed for a control. […] To evaluate this cytotoxicity, the cell survival rate observed when adding a test sample to the system is compared with that observed for the control. Thus, the substantial whitening effect can be evaluated on the basis of the results of these cell-whitening test and cytotoxicity test.
An example of such a method for evaluating the melanogenesis-inhibitory function in a cell culture system using B-16 melanoma cells comprises, for instance, the steps of dispensing 2 ml/well of a culture medium to each well of a 6-well plate, inoculating a desired amount of melanoma cells to the medium, cultivating the cells by allowing the medium to stand at 37° C. and a carbon dioxide concentration of 5%. On the following day, a solution of a test sample is added and mixed with the culture medium to a predetermined concentration and the cell cultivation is continued. After 5 days from the initiation of the cultivation, the culture medium is replaced with fresh one and the solution of the test sample is again added thereto. On the next day, the medium is removed to thus recover the cells, followed by washing them with PBS (phosphate-buffered saline) and the determination of the degree of whiteness to thus evaluate the whitening effect of the test sample. In this connection, the melanogenesis-inhibitory function is evaluated by comparing the results thus obtained with the degree of whiteness observed when the same procedures are repeated using the vitamin C-magnesium phosphate as a known whitening agent instead of the test sample solution (positive control) and that observed when the procedures are repeated without addition of any test sample (control).
A culture medium was dispensed to wells of a 6-well plate (2 mL/well each), followed by inoculation of a desired amount of B-16 melanoma cells on each well, allowing the wells to stand at 37° C. and 5% CO2 to thus cultivate the cells. On the day subsequent thereto, a sample solution prepared was added to the wells with stirring and the cultivation was continued. The culture medium was replaced with fresh one on the 5th day from the initiation of the cultivation and the sample solution was again added to the wells. On the next day, the culture medium was removed to recover the cells, followed by washing them with PBS (phosphate buffered physiological saline) and then evaluation of the cell-whitening degree In this respect, the melanogenesis-inhibitory function was evaluated by comparing the cell-whitening degree thus obtained with that observed when the same procedures used above were repeated except that vitamin C-magnesium phosphate as a known whitening agent (positive control) was substituted for the sample solution used above and that observed when the same procedures used above were repeated except that any sample was not added (control), according to the following evaluation criteria.
The evaluation criteria for the cell-whitening degree are as follows: […]

[2] = tested on: B-16 melanoma cells; experiment: Cell-survival rate (cytotoxicity) in B-16 melanoma cell culture; assay type: cell-based
From the text: as §1
The cell-survival rate at each added sample concentration can be determined according to the following formula
Cell-Survival Rate (%)=(A/B)×100
Wherein A represents the viable cell count observed for the system to which a sample is added and B represents the number of cells observed for the control system.

[3] = concentration 2 ppm, B-16 melanoma cells
[4] = concentration 4 ppm, B-16 melanoma cells
[5] = concentration 6 ppm, B-16 melanoma cells
[6] = concentration 8 ppm, B-16 melanoma cells
[7] = concentration 10 ppm, B-16 melanoma cells
[8] = concentration 15 ppm, B-16 melanoma cells
[9] = concentration 25 ppm, B-16 melanoma cells
[10] = concentration 50 ppm, B-16 melanoma cells

| Molecule | Whitening degree [1, 3] | Whitening degree [1, 4] | Whitening degree [1, 5] | Whitening degree [1, 6] | Whitening degree [1, 7] | Whitening degree [1, 8] | Whitening degree [1, 9] | Whitening degree [1, 10] | also measured |
| --- | --- | --- | --- | --- | --- | --- | --- | --- | --- |
| CC1(C)CC[C@]2(C(=O)O)CC[C@]3(C)C(=CC[C@@H]4[C@@]5(C)C[C@@H](O)[C@H](O)C(C)(C)[C@@H]5CC[C@]43C)[C@@H]2C1 [Purified maslinic acid 1, maslinic acid] | ± | + | ++ | ++ | ++ |  |  |  | whitening effect, times that observed for vitamin C-magnesium phosphate ([1]; from Table 1, positive control vitamin C-magnesium phosphate 450 ppm): about 110 times; added concentration at which the whitening effect is almost identical to that of the positive control ([1]; positive control vitamin C-magnesium phosphate 450 ppm, B-16 melanoma cells): 4 ppm; Cell-Survival Rate [2, 3]: 100%; Cell-Survival Rate [2, 4]: 100%; Cell-Survival Rate [2, 5]: 100%; Cell-Survival Rate [2, 6]: 79%; Cell-Survival Rate [2, 7]: 57% |
| CC(=O)O[C@@H]1C[C@]2(C)[C@H]3CC=C4[C@@H]5CC(C)(C)CC[C@]5(C(=O)O)CC[C@@]4(C)[C@]3(C)CC[C@H]2C(C)(C)[C@H]1OC(C)=O [Compound of Synthesis 2, 2,3-O-Di-Acetyl-Maslinic Acid] | ± | ± | + | ++ | ++ | ++ |  |  |  |
| O=c1cc(CO)occ1O [Kojic Acid, reference compound] |  |  |  |  | − | − | − | ± | Whitening degree ([1]; concentration 100 ppm, B-16 melanoma cells): ±; Whitening degree ([1]; concentration 200 ppm, B-16 melanoma cells): +; Whitening degree ([1]; concentration 300 ppm, B-16 melanoma cells): ++; Whitening degree ([1]; concentration 400 ppm, B-16 melanoma cells): ++; Cell-Survival Rate ([2]; mouse, 10 ppm): 100%; Cell-Survival Rate ([2]; mouse, 15 ppm): 100%; Cell-Survival Rate ([2]; mouse, 25 ppm): 100%; Cell-Survival Rate ([2]; mouse, 50 ppm): 100%; Cell-Survival Rate ([2]; mouse, 100 ppm): 100%; Cell-Survival Rate ([2]; mouse, 200 ppm): 93%; Cell-Survival Rate ([2]; mouse, 300 ppm): 80%; Cell-Survival Rate ([2]; mouse, 450 ppm): 66% |
| C=C(C)[C@@H]1CC[C@]2(C(=O)OCC)CC[C@]3(C)[C@H](CC[C@@H]4[C@@]5(C)CC[C@H](O)C(C)(C)[C@@H]5CC[C@]43C)[C@@H]12 [Compound of Synthesis 7, Ethyl Ester of Betulinic Acid] | − | ± | ± | ± | + | + | + | + |  |
| CC1(C)CC[C@]2(C)CC[C@]3(C)C(=CC[C@@H]4[C@@]5(C)CC[C@H](O)C(C)(C)[C@@H]5CC[C@]43C)[C@@H]2C1 [β-amyrin, reference compound] |  |  |  |  |  |  |  |  | whitening effect (melanogenesis-inhibitory function), in words [1]: never show any whitening effect |
| C=C(C)[C@@H]1CC[C@]2(COC(C)=O)CC[C@]3(C)[C@H](CC[C@@H]4[C@@]5(C)CC[C@H](OC(C)=O)C(C)(C)[C@@H]5CC[C@]43C)[C@@H]12 [Compound of Synthesis 8, 3,28-O-Di-Acetyl-Betulin] | − | − | ± | ± | ± | + | + | + |  |
| CC1(C)CC[C@]2(C(=O)O)CC[C@]3(C)C(=CC[C@@H]4[C@@]5(C)CC[C@H](O)C(C)(C)[C@@H]5CC[C@]43C)[C@@H]2C1 [oleanolic acid, reference compound] |  |  |  |  |  |  |  |  | whitening effect (melanogenesis-inhibitory function), in words [1]: never show any whitening effect |
| Ethyl Ester of 2,3-O-Di-Stearoyl-Maslinic Acid [Compound of Synthesis 4] | ± | ± | + | ++ | ++ | ++ |  |  |  |
| CC[Si](CC)(CC)OC(=O)[C@]12CCC(C)(C)C[C@H]1C1=CC[C@@H]3[C@@]4(C)C[C@@H](O[Si](CC)(CC)CC)[C@H](O[Si](CC)(CC)CC)C(C)(C)[C@@H]4CC[C@@]3(C)[C@]1(C)CC2 [Compound of Synthesis 3, Triethylsilyl Ester of 2,3-O-Di-Triethylsilyl-Maslinic Acid] | − | ± | ± | + | + | + | + | + | Cell-Survival Rate [2, 3]: 100%; Cell-Survival Rate [2, 4]: 100%; Cell-Survival Rate [2, 5]: 100%; Cell-Survival Rate [2, 6]: 100%; Cell-Survival Rate [2, 7]: 100%; Cell-Survival Rate [2, 8]: 100%; Cell-Survival Rate [2, 9]: 100%; Cell-Survival Rate [2, 10]: 94% |
| C=C(C)[C@@H]1CC[C@]2(C)CC[C@]3(C)[C@H](CC[C@@H]4[C@@]5(C)CC[C@H](O)C(C)(C)[C@@H]5CC[C@]43C)[C@@H]12 [lupeol, reference compound] |  |  |  |  |  |  |  |  | whitening effect (melanogenesis-inhibitory function), in words [1]: never show any whitening effect |
| C[C@H]1[C@H](C)CC[C@]2(C)CC[C@]3(C)C(=CC[C@@H]4[C@@]5(C)CC[C@H](O)C(C)(C)[C@@H]5CC[C@]43C)[C@H]12 [α-amyrin, reference compound] |  |  |  |  |  |  |  |  | whitening effect (melanogenesis-inhibitory function), in words [1]: never show any whitening effect |
| CCOC(=O)[C@]12CCC(C)(C)C[C@H]1C1=CC[C@@H]3[C@@]4(C)C[C@@H](O)[C@H](O)C(C)(C)[C@@H]4CC[C@@]3(C)[C@]1(C)CC2 [Compound of Synthesis 1, Ethyl Ester of Maslinic Acid] | ± | + | ++ | ++ | ++ |  |  |  |  |
| CC(=O)OCC12CCC(C)(C)CC1C1=CCC3C4(C)CCC(OC(C)=O)C(C)(C)C4CCC3(C)C1(C)CC2 (stereo not shown) [Compound of Synthesis 5, 3,28-O-Di-Acetyl-Erythrodiol] | ± | ± | ± | ± | ± | ± | + | + |  |
| CC(=O)OC[C@]12CC[C@@H](C)[C@H](C)[C@H]1C1=CC[C@@H]3[C@@]4(C)CC[C@H](OC(C)=O)C(C)(C)[C@@H]4CC[C@@]3(C)[C@]1(C)CC2 [Compound of Synthesis 6, 3,28-O-Di-Acetyl-Uvaol] | − | − | − | ± | + | + | + | + |  |
